≈ marks a conversion by molar mass, not a printed value. Numbered stars: 1 amine (or outer) side, 2 acyl side, 3 side chain; on linkers, the order of the positions; unused ones are H or OH. Square brackets hold non-standard residues; d marks the D form. Peptide text beside a SMILES is read from it. * marks the point of attachment. ξ: configuration not given here. X1 = N=C1NCC(C(O)C(N[*:1])C(=O)[*:2])N1C1OC(CO)C(O)C(O)C1O; ξEnduracididine(βξ-OH,4'ξ) = N=C1NCC(C(O)C(N)C(=O)O)N1; X2 = OCC1OC(OC2C(CO)OC(*)C(O)C2O)C(O)C(O)C1O; ξCha(3ξ-Me) = CC(C1CCCCC1)C(N)C(=O)O
Columns and labels:
Assay in all cases: in vitro antibacterial evaluation, MIC by broth dilution
Type in all cases: cell-based
Conditions in all cases: broth dilution, 18 hours at 35° C.
Enterococcus sp. = tested on: Enterococcus sp.
In short: (§1)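 MIC, the lowest antibiotic concentration preventing growth, was read across 64-0.06 μg/mL with 5×10^5 CFU/mL inoculum. Method followed NCCLS M7-A2 broth dilution using Mueller-Hinton II; Gram-positive strains covered recent methicillin-, penicillin- and/or vancomycin-resistant clinical isolates.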

Staphylococcus sp. = tested on: Staphylococcus sp.
In short: as §1

Streptococcus sp. = tested on: Streptococcus sp.
In short: as §1

Escherichia coli = tested on: Escherichia coli
In short: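 MIC is the lowest antibiotic concentration (tested 64-0.06 μg/mL) preventing growth of a 5×10^5 CFU/mL inoculum. Determined by broth dilution in Mueller-Hinton II medium following NCCLS standard M7-A2.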

- MIC Enterococcus faecalis (ATCC 29212) (Enterococcus sp.; strain ATCC 29212): >64 µg/mL
- MIC Enterococcus faecalis (GC 2242) (Enterococcus sp.; strain GC 2242): 64 µg/mL (≈ 49.2 µM)
- MIC Enterococcus faecium (GC 2243) (Enterococcus sp.; strain GC 2243): >64 µg/mL
- MIC Enterococcus faecalis (GC 2691) (Enterococcus sp.; strain GC 2691): >64 µg/mL
- MIC Enterococcus faecalis (GC 3059) (Enterococcus sp.; strain GC 3059): >64 µg/mL
- MIC Enterococcus faecalis (GC 4552) (Enterococcus sp.; strain GC 4552): >64 µg/mL
- MIC Enterococcus faecalis (GC 4553) (Enterococcus sp.; strain GC 4553): >64 µg/mL
- MIC Enterococcus faecalis (GC 4554) (Enterococcus sp.; strain GC 4554): >64 µg/mL
- MIC Enterococcus faecium (GC 4556) (Enterococcus sp.; strain GC 4556): >64 µg/mL
- MIC Enterococcus faecium (GC 4557) (Enterococcus sp.; strain GC 4557): 16 µg/mL (≈ 12.3 µM)
- MIC Enterococcus avium (GC 4558) (Enterococcus sp.; strain GC 4558): 64 µg/mL (≈ 49.2 µM)
- MIC Enterococcus faecalis (GC 6189) (Enterococcus sp.; strain GC 6189): >64 µg/mL
- MIC Staphylococcus aureus (ATCC 29213) (Staphylococcus sp.; strain ATCC 29213): 32 µg/mL (≈ 24.6 µM)
- MIC Staphylococcus aureus (GC 1131) (Staphylococcus sp.; strain GC 1131): 32 µg/mL (≈ 24.6 µM)
- MIC Staphylococcus aureus (GC 3051) (Staphylococcus sp.; strain GC 3051): 32 µg/mL (≈ 24.6 µM)
- MIC Staphylococcus aureus (GC 3053) (Staphylococcus sp.; strain GC 3053): 64 µg/mL (≈ 49.2 µM)
- MIC Staphylococcus aureus (GC 4541) (Staphylococcus sp.; strain GC 4541): 32 µg/mL (≈ 24.6 µM)
- MIC Staphylococcus aureus (GC 4542) (Staphylococcus sp.; strain GC 4542): 32 µg/mL (≈ 24.6 µM)
- MIC Staphylococcus aureus-SMITH (GC 4543) (Staphylococcus sp.; strain GC 4543): 32 µg/mL (≈ 24.6 µM)
- MIC Staphylococcus aureus (GC 4544) (Staphylococcus sp.; strain GC 4544): 32 µg/mL (≈ 24.6 µM)
- MIC Staphylococcus aureus (GC 4545) (Staphylococcus sp.; strain GC 4545): 32 µg/mL (≈ 24.6 µM)
- MIC Coagulase Negative Staphylococcus (GC 4547) (Staphylococcus sp.; strain GC 4547): 16 µg/mL (≈ 12.3 µM)
- MIC Coagulase Negative Staphylococcus (GC 4548) (Staphylococcus sp.; strain GC 4548): 16 µg/mL (≈ 12.3 µM)
- MIC Coagulase Negative Staphylococcus (GC 4549) (Staphylococcus sp.; strain GC 4549): 4 µg/mL (≈ 3.07 µM)
- MIC Coagulase Negative Staphylococcus (GC 4551) (Staphylococcus sp.; strain GC 4551): 64 µg/mL (≈ 49.2 µM)
- MIC Streptococcus pneumoniae (ATCC 6301) (Streptococcus sp.; strain ATCC 6301): 8 µg/mL (≈ 6.15 µM)
- MIC Streptococcus pneumoniae (GC 1894) (Streptococcus sp.; strain GC 1894): 4 µg/mL (≈ 3.07 µM)
- MIC Streptococcus pyogenes (GC 4563) (Streptococcus sp.; strain GC 4563): 8 µg/mL (≈ 6.15 µM)
- MIC Streptococcus agalactiae (GC 4564) (Streptococcus sp.; strain GC 4564): 16 µg/mL (≈ 12.3 µM)
- MIC Streptococcus pneumoniae (GC 4565) (Streptococcus sp.; strain GC 4565): 8 µg/mL (≈ 6.15 µM)
- MIC Escherichia coli (ATCC 25922) (Escherichia coli; strain ATCC 25922): >64 µg/mL
- MIC Escherichia coli (GC 4559) (Escherichia coli; strain GC 4559): 64 µg/mL (≈ 49.2 µM)
- MIC Escherichia coli (GC 4560) (Escherichia coli; strain GC 4560): 8 µg/mL (≈ 6.15 µM)
Structure (SMILES): CC(C1CCCCC1)C1NC(=O)CNC(=O)C(CO)NC(=O)C(C(O)C2CNC(=N)N2C2OC(CO)C(O)C(O)C2O)NC(=O)C(C(O)C2CNC(=N)N2)NC(=O)C(Cc2ccc(OC3OC(CO)C(OC4OC(CO)C(O)C(O)C4O)C(O)C3O)cc2)NC1=O (stereo not drawn) [Example 51, Cyclo[3-cyclohexyl-2-aminobutanoyl-O-(4-O-hexopyranosylhexopyranosyl)tyrosyl-3-(2-iminoimidazolidin-4-yl)seryl-3-(3-hexopyranosyl-2-iminoimidazolidin-4-yl)-serylserylglycyl]] (cyclo(G[ξCha(3ξ-Me)]Y(X2)[ξEnduracididine(βξ-OH,4'ξ)][X1]S); configuration not given here)
- MIC Staphylococcus haemolyticus (GC 4546) (Staphylococcus sp.; strain GC 4546): 32 µg/mL (≈ 24.6 µM)

From patent US6914045B2, “Glycopeptide antibiotics” (Wyeth Holdings Corporation, priority 2001, dated 2005)
